Source: US7858394B2, “Test methods for determining the intracellular concentration of cyclic nucleotides” (Axxam SpA, priority 2003, dated 2010)

Tests used:
[1] = tested on: soluble guanylate cyclase; assay: Luminescence measurement of intracellular cGMP in a cell line expressing the CNG2 channel, a calcium-sensitive photoprotein and soluble guanylate cyclase; format: cell-based; settings: dose-dependent; RLUs measured for 1 min; FIG. 2
Method: (§1) The cells are seeded for the measurements on 384-well microtitre plates (MTPs) at 1500 cells per well and on 1536-well MTPs at 250 cells per well. After 1-2 days of growth at 37° C./5% CO2, the cell culture medium (DMEM/F12 containing 10% foetal calf serum) is removed and the cells are charged with coelenterazine (0.8 μg/ml) in calcium-free Tyrode's at 37° C./5% CO2 for 3 h. Subsequently, test substances and appropriate control substances (e.g. SIN-1 or isoprenaline) are added in calcium-free Tyrode's and incubated on the cells for 5-10 min. The extra measurement is then carried out in a light-tight box by adding calcium-containing Tyrode's via a comb (final calcium concentration: 3 mM), with the aid of a charge-coupled device camera.

[2] = tested on: β-adrenergic receptor
Method: as §1
To measure the effects of substances directly, the cells are charged with coelenterazine in calcium-containing Tyrode's. The substances are then added within the light-tight box and measurement commences immediately with addition of the substances (FIG. 5).
If the cells are charged with coelenterazine in calcium-containing Tyrode's, the agonist isoprenaline may also be added directly to the cells within the light-tight box.

Compound | luminescence signal (intracellular cGMP concentration) after activation of soluble guanylate cyclase [1] | time until luminescence signal is observed after addition of agonist ([2]; cells charged with coelenterazine in calcium-containing Tyrode's, agonist 10^-6 M added directly within the light-tight box, FIG. 5) | luminescence signal (intracellular cAMP concentration) after activation of the β-adrenergic receptor ([2]; dose-dependent, 10 min incubation in calcium-free Tyrode's, measurement started by adding calcium, 0, 10^-7 M, 10^-6 M, FIG. 4)
[NH-]c1c[n+](N2CCOCC2)no1 [SIN-1] | enhanced luminescence signal | – | –
CC(C)NCC(O)c1ccc(O)c(O)c1 (stereo not drawn) [isoprenaline] | – | within a few seconds | enhanced lumiscence signal
